In patent publication US11286268B1, “EIF4E-inhibiting compounds and methods” (EFFECTOR THERAPEUTICS, INC., priority 2019, dated 2022):

Target: recombinant eIF4E (Homo sapiens (Human), UniProt P06730)
Assay: Fluorescence polarization competition assay for eIF4E binding potency
Details: inhibition of eIF4E/EDA-m7GDP-ATTO-550 binding; calculated IC50 values, Table 4B; read-out: IC50
In short: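 Protein and fluorescent cap-analog probe (EDA-m7GDP-ATTO-550) were mixed first for 5 min, after which serially diluted compound was added to final 75 nM eIF4E, 20 nM probe, 1% DMSO. Reactions equilibrated 30 min at room temperature before polarization was measured.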

Chain of recombinant eIF4E (P06730 whole entry): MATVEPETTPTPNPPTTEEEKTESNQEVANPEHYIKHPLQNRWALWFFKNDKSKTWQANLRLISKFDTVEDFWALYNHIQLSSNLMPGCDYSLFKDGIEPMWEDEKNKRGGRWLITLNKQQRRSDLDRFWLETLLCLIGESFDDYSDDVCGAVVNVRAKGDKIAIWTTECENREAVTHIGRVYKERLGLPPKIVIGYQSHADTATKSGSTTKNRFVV

IC50 | Compound
34.1 nM | Cc1nc2cnc(N3CCN(C4(C)CC4)CC3)c(C#N)c2c(=O)n1CCOc1ccc(Cl)cc1-c1ccnc2c(C(=O)O)csc12 [compound 1365]
14.3 nM | Cc1nc2cnc(N3CCN(C4(C(F)F)CC4)CC3)c(C#N)c2c(=O)n1CC#Cc1ccc(Cl)cc1-c1ccnc2c(C(=O)O)csc12 [compound 1366]
14.9 nM | Cc1nc2cnc(N3CCN(C(C)(C)CC#N)CC3)c(C#N)c2c(=O)n1CC#Cc1ccc(Cl)cc1-c1ccnc2c(C(=O)O)csc12 [compound 1367]
19.9 nM | Cc1nc2cnc(N3CCN(C4(C#N)CC4)CC3)c(C#N)c2c(=O)n1CC#Cc1ccc(Cl)cc1-c1ccnc2c(C(=O)O)csc12 [compound 1368]
13.2 nM | Cc1nc2cnc(N3CC4(C3)CN(C3CCCC3)C4)c(C#N)c2c(=O)n1CCOc1ccc(Cl)cc1-c1ccnc2c(C(=O)O)csc12 [compound 1369]
19.9 nM | Cc1nc2cnc(N(C)C3CCN(CC4CC4)CC3)c(C#N)c2c(=O)n1CCOc1ccc(Cl)cc1-c1ccnc2c(C(=O)O)csc12 [compound 1370]
26.7 nM | Cc1nc2c(F)ccc(C#N)c2c(=O)n1CCOc1ccc(Cl)cc1-c1ccnc2c(C(=O)O)csc12 [compound 1373]
18 nM | Cc1cc(-c2cc(Cl)ccc2OCCn2c(C)nc3cc(C)c(CN(C)C)c(C#N)c3c2=O)c2scc(C(=O)O)c2n1 [compound 1379]
21.6 nM | Cc1cc(-c2cc(Cl)ccc2OCCn2c(C)nc3cnc(-c4ccccc4)c(C#N)c3c2=O)c2scc(C(=O)O)c2n1 [compound 1382]
12.8 nM | Cc1cc(-c2c(C(F)F)cc3nc(C)n(CCOc4ccc(Cl)cc4-c4cc(C)nc5c(C(=O)O)csc45)c(=O)c3c2C#N)ccn1 [compound 1386]
37.6 nM | COC(=O)c1csc2c(-c3cc(Cl)ccc3OCCn3c(C)nc4cc(C(F)(F)F)c(N5CCN(C)CC5)c(C#N)c4c3=O)cc(C)nc12 [compound 1391]
29.6 nM | Cc1nc2c(N3CCN(CCOC(F)(F)F)CC3)ncc(C#N)c2c(=O)n1CCOc1ccc(Cl)cc1-c1ccnc2c(C(=O)O)csc12 [compound 1395]
14.7 nM | Cc1nc2c(N3CCN(C4(C(F)F)COC4)CC3)ncc(C#N)c2c(=O)n1CCOc1ccc(Cl)cc1-c1ccnc2c(C(=O)O)csc12 [compound 1397]
27.8 nM | Cc1nc2cnc(N3CCN(C(C)(C)CCC(F)(F)F)CC3)c(C#N)c2c(=O)n1CCOc1ccc(Cl)cc1-c1ccnc2c(C(=O)O)csc12 [compound 1400]
12.7 nM | Cc1nc2cnc(N3CCN(C4(CCC(F)(F)F)CC4)CC3)c(C#N)c2c(=O)n1CCOc1ccc(Cl)cc1-c1ccnc2c(C(=O)O)csc12 [compound 1401]
6.58 nM | Cc1nc2cnc(/C=C/CN(C)CCF)c(C#N)c2c(=O)n1CC#Cc1ccc(Cl)cc1-c1ccnc2c(C(=O)O)csc12 [compound 1402]
482 nM | COC(=O)c1csc2c(-c3cc(Cl)ccc3C#CCn3c(C)nc4cnc(N5CCN(CC(F)F)CC5)c(C#N)c4c3=O)ccnc12 [compound 1404]
631 nM | COC(=O)c1csc2c(-c3cc(Cl)ccc3C#CCn3c(C)nc4cnc(N5CCN(CCOC(F)(F)F)CC5)c(C#N)c4c3=O)ccnc12 [compound 1405]
17.6 nM | Cc1nc2cnc(N3CCC4(CC3)CN(CC(F)F)C4)c(C#N)c2c(=O)n1CC#Cc1ccc(Cl)cc1-c1ccnc2c(C(=O)NS(=O)(=O)C3COC3)csc12 [compound 1408]
17.5 nM | Cc1nc2cnc(N3CCC4(CC3)CN(CC(C)(F)F)C4)c(C#N)c2c(=O)n1CC#Cc1ccc(Cl)cc1-c1ccnc2c(C(=O)NS(=O)(=O)C3COC3)csc12 [compound 1411]
51.7 nM | Cc1nc2cnc(N(C)C3(C)CCN(CC(F)F)CC3)c(C#N)c2c(=O)n1CC#Cc1ccc(Cl)cc1-c1ccnc2c(C(=O)O)csc12 [compound 1413]
15.3 nM | Cc1nc2cnc(N3CCC(C)(N(C)CC(F)F)CC3)c(C#N)c2c(=O)n1CC#Cc1ccc(Cl)cc1-c1ccnc2c(C(=O)O)csc12 [compound 1414]
9.1 nM | Cc1cc(-c2cc(Cl)ccc2OCCn2c(C)nc3cnc(N4CCN(C)CC4)c(C#N)c3c2=O)c2sc(C)c(C(=O)O)c2n1 [compound 1418]
6.76 nM | Cc1cc(-c2cc(Cl)ccc2OCCn2c(C)nc3c(C4COC4)ncc(C#N)c3c2=O)c2scc(C(=O)O)c2n1 [compound 1419]
36.6 nM | Cc1cc(-c2cc(Cl)ccc2OCCn2c(C)nc3cnc(C4(F)CN(C)C4)c(C#N)c3c2=O)c2scc(C(=O)O)c2n1 [compound 1421]
29.2 nM | Cc1nc2cnc(N3CCN(C(C)CF)CC3)c(C#N)c2c(=O)n1CCOc1ccc(Cl)cc1-c1ccnc2c(C(=O)O)csc12 (stereo not shown) [compound 1424]
13 nM | Cc1nc2cnc(N3CCN(C4(CCF)CC4)CC3)c(C#N)c2c(=O)n1CCOc1ccc(Cl)cc1-c1ccnc2c(C(=O)O)csc12 [compound 1425]
14.3 nM | Cc1nc2cnc(C3CCC(N(C)CC(F)(F)F)C3)c(C#N)c2c(=O)n1CCOc1ccc(Cl)cc1-c1ccnc2c(C(=O)O)csc12 (stereo not shown) [compound 1427]
12.2 nM | Cc1nc2cnc(N(C)C3CCN(C4(CF)CC4)CC3)c(C#N)c2c(=O)n1CCOc1ccc(Cl)cc1-c1ccnc2c(C(=O)O)csc12 [compound 1428]

The remaining lines, values behind:

Compound | IC50
Cc1nc2cc(C(F)(F)F)cc(C#N)c2c(=O)n1CCOc1ccc(Cl)cc1-c1ccnc(C(=O)NS(C)(=O)=O)c1 [compound 1372] | 80.7 nM
Cc1nc2cc(C(F)(F)F)cc(C#N)c2c(=O)n1CCOc1ccc(Cl)cc1-c1cc(CCN)nc2c(C(=O)O)csc12 [compound 1374] | 56.1 nM
Cc1nc2cc(C(F)(F)F)cc(C#N)c2c(=O)n1CCOc1ccc(Cl)cc1-c1ccnc2c(-c3cc(O)no3)csc12 [compound 1375] | 83.9 nM
Cc1cc(-c2cc(Cl)ccc2OCCn2c(C)nc3cc(C(F)(F)F)c(CN4CCSCC4)c(C#N)c3c2=O)c2scc(C(=O)O)c2n1 [compound 1376] | 13.6 nM
Cc1cc(-c2cc(Cl)ccc2OCCn2c(C)nc3cc(C(F)(F)F)c(CN4CCS(=O)(=O)CC4)c(C#N)c3c2=O)c2scc(C(=O)O)c2n1 [compound 1377] | 44 nM
Cc1cc(-c2cc(Cl)ccc2OCCn2c(C)nc3c(-c4ccccc4)ncc(C#N)c3c2=O)c2scc(C(=O)O)c2n1 [compound 1378] | 30 nM
Cc1cc(-c2cc(Cl)ccc2OCCn2c(C)nc3cc(C(F)(F)F)c(-c4ncccc4C)c(C#N)c3c2=O)c2scc(C(=O)O)c2n1 [compound 1380] | 26.6 nM
Cc1cc(-c2cc(Cl)ccc2OCCn2c(C)nc3cc(C(F)(F)F)c(-c4ccc(F)cn4)c(C#N)c3c2=O)c2scc(C(=O)O)c2n1 [compound 1381] | 7.96 nM
Cc1cc(-c2cc(Cl)ccc2OCCn2c(C)nc3cc(C(F)(F)F)c(-c4cnc(C)c(F)c4)c(C#N)c3c2=O)c2scc(C(=O)O)c2n1 [compound 1383] | 5.03 nM
Cc1cc(-c2cc(Cl)ccc2OCCn2c(C)nc3cc(C(F)(F)F)c(-c4cnc(Cl)cc4F)c(C#N)c3c2=O)c2scc(C(=O)O)c2n1 [compound 1384] | 6.86 nM
Cc1cc(-c2c(C(F)F)cc3nc(C)n(CCOc4ccc(Cl)cc4-c4cc(C)nc5c(C(=O)O)csc45)c(=O)c3c2C#N)cc(C)n1 [compound 1385] | 7.24 nM
Cc1cc(-c2cc(Cl)ccc2OCCn2c(C)nc3cc(C(F)F)c(-c4cncc(F)c4)c(C#N)c3c2=O)c2scc(C(=O)O)c2n1 [compound 1387] | 22.8 nM
Cc1cc(F)c(-c2c(C(F)(F)F)cc3nc(C)n(CCOc4ccc(Cl)cc4-c4cc(C)nc5c(C(=O)O)csc45)c(=O)c3c2C#N)cn1 [compound 1388] | 36.2 nM
Cc1cc(O)c(-c2c(C(F)(F)F)cc3nc(C)n(CCOc4ccc(Cl)cc4-c4cc(C)nc5c(C(=O)O)csc45)c(=O)c3c2C#N)cn1 [compound 1389] | 1190 nM
Cc1cc(-c2cc(Cl)ccc2OCCn2c(C)nc3cc(C(F)(F)F)c(OCCN4CCNCC4)c(C#N)c3c2=O)c2sc(C)c(C(=O)O)c2n1 [compound 1392] | 26.5 nM
Cc1cc(-c2cc(Cl)ccc2OCCn2c(C)nc3cc(C(F)(F)F)c(N4CCN(CCO)CC4)c(C#N)c3c2=O)c2sc(C)c(C(=O)O)c2n1 [compound 1393] | 13.2 nM
CCc1cc(-c2cc(Cl)ccc2OCCn2c(C)nc3cc(C(F)(F)F)c(CC4CN(C)C4)c(C#N)c3c2=O)c2scc(C(=O)O)c2n1 [compound 1394] | 4.74 nM
Cc1nc2cnc(N(C)[C@H]3[C@@H]4CN(CC(F)F)C[C@@H]43)c(C#N)c2c(=O)n1CC#Cc1ccc(Cl)cc1-c1ccnc2c(C(=O)O)csc12 [compound 1403] | 8.76 nM
CC(=O)c1csc2c(-c3cc(Cl)ccc3C#CCn3c(C)nc4cnc(N(C)[C@H]5C[C@H]6CC[C@@H](C5)N6CC(F)F)c(C#N)c4c3=O)ccnc12 [compound 1406] | 26.6 nM
Cc1nc2cnc(N(C)[C@@H]3[C@@H]4CN(CC(F)F)C[C@@H]43)c(C#N)c2c(=O)n1CC#Cc1ccc(Cl)cc1-c1ccnc2c(C(=O)O)csc12 [compound 1407] | 24.7 nM
Cc1nc2cnc(N3CCC4(CC3)CN(CC(F)F)C4)c(C#N)c2c(=O)n1CC#Cc1ccc(Cl)cc1-c1ccnc2c(C(=O)NS(=O)(=O)c3cccnc3)csc12 [compound 1409] | 10.8 nM
Cc1nc2cnc(N3CCC4(CC3)CN(CC(C)(F)F)C4)c(C#N)c2c(=O)n1CC#Cc1ccc(Cl)cc1-c1ccnc2c(C(=O)NS(=O)(=O)c3cccnc3)csc12 [compound 1412] | 6.71 nM
Cc1nc2cnc(C3(C)CCN(C)CC3)c(C#N)c2c(=O)n1CCOc1ccc(Cl)cc1-c1ccnc2c(C(=O)O)csc12 [compound 1415] | 16.8 nM
Cc1cc(-c2cc(Cl)ccc2OCCn2c(C)nc3cc(C(F)(F)F)c(N4CCN(C)CC4)c(C#N)c3c2=O)c2sc(C)c(C(=O)O)c2n1 [compound 1416] | 12.7 nM
Cc1cc(-c2cc(Cl)ccc2OCCn2c(C)nc3cc(C(F)(F)F)c(C4=CCN(C)CC4)c(C#N)c3c2=O)c2sc(C)c(C(=O)O)c2n1 [compound 1417] | 24.9 nM
Cc1cc(-c2cc(Cl)ccc2OCCn2c(C)nc3cc(C(F)(F)F)c(N4CC5(CN(C)C5)C4)c(C#N)c3c2=O)c2sc(C)c(C(=O)O)c2n1 [compound 1420] | 6.33 nM
